Where two headings read alike, the source gives them in different places.
Target: Ghrelin receptor (Homo sapiens, UniProt Q92847)
Assay: Receptor Selection and Amplification Technology (R-SAT) assay
Assay type: cell-based
Set-up: expressed in transfected cells; host or cells: NIH3T3
Conditions: for IC50: '—' not defined (nd used separately), read-out: RSAT pIC50 (converted); for Emax: read-out: RSAT Eff(%)
[1] = negative logarithm of ligand concentration causing 50% inhibition of constitutive receptor response, transfected NIH3T3 cells
[2] = percent inhibition at saturating ligand, normalized to reference ligand Substance P analog = 100%

Sequence of Ghrelin receptor (Q92847 whole entry): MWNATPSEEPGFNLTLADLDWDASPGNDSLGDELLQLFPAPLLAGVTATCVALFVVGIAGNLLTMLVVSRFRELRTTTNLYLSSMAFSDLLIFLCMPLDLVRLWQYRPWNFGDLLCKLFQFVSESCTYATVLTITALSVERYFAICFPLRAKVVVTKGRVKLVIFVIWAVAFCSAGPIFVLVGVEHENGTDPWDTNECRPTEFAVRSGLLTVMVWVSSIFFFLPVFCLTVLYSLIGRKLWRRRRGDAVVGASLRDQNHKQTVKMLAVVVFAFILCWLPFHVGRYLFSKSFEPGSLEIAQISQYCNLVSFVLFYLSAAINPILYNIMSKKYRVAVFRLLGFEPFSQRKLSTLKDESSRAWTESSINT

Row | SMILES | IC50 ([…]) [nM] | Emax [%] | IC50 [1] [nM] | Emax [2] [%] | RSAT Eff(%)
1 | CC(=O)c1cn(CCCN2CCC(c3nc(-c4cccnc4)no3)CC2)c2c(C#N)cccc12 | 50.1 | 77 |  |  | 
2 | CC(=O)c1cn(CCCN2CCC3(CC2)CC(=O)c2ccccc2O3)c2c(Br)cccc12 |  | 3 |  |  | 
3 | CC(=O)c1cn(CCCN2CCCN(CCc3ccccc3)CC2)c2c(C)cccc12 | 100 | 102 |  |  | 
4 | COc1cccc2c(C#N)cn(CCCN3CCCN(Cc4ccc(F)cc4)CC3)c12 |  |  | 15.8 | 109 | 
5 | CC(=O)c1c(C)n(CCCN2CCC(Cc3ccccc3Cl)C2)c2c(Br)cccc12 (centres unmarked) |  | 38 |  |  | 
6 | CCc1cccc2c(C(C)=O)cn(CCCNC3Cc4ccccc4C3)c12 |  |  | 158 | 98 | 
7 | COc1ccccc1C1CCN(CCn2cc(C(C)=O)c3ccccc32)CC1 | 5010 | 44 |  |  | 
8 | O=C(c1ccccc1)C1CCN(CCCn2cc(C(=O)C(F)(F)F)c3ccccc32)CC1 |  |  | 631 | 63 | 
9 | COc1cccc2c(C(=O)Cc3ccccc3)cn(CCCN3CCN(Cc4ccc(Cl)cc4Cl)CC3)c12 | 2 | 76 |  |  | 
10 | CC(=O)c1cn(CC(O)CN2CCC(Oc3ccc(F)cc3)CC2)c2ccccc12 (centres unmarked) |  |  | 200 | 74 | 
11 | CCC(=O)c1cn(CCCN2CCC(c3ccccc3OC)CC2)c2ccccc12 |  |  | 316 | 59 | 
12 | COc1cccc2c(C(=O)NCc3cccc(Cl)c3)cn(CCCN3CCC(c4nc(-c5ccncc5)no4)CC3)c12 | 31.6 | 105 |  |  | 
13 | CC(C)CC(=O)c1cn(CCCN2C3CCC2CC(OCC2CC2)C3)c2ccccc12 (centres unmarked) |  |  | 158 | 129 | 
14 | CC(=O)c1cn(CCCN2CCN(CCOc3ccc(Cl)cc3)CC2)c2c(C#N)cccc12 |  | 4 |  |  | 
15 | CC(=O)c1cn(CCCN2CCC(C(=O)c3ccccc3)CC2)c2cc(Br)ccc12 | 2510 | 36 |  |  | 
16 | CCC(=O)c1cn(CCCN2CCN(C(C)c3ccccc3)CC2)c2ccccc12 (centres unmarked) |  |  | 2510 | 57 | 
17 | O=C(c1cn(CCCN2CCC(Oc3ccc(F)cc3)CC2)c2ccccc12)C(F)(F)F |  |  | 794 | 75 | 

Row | SMILES | IC50 ([…]) [nM] | Emax [%] | IC50 [1] [nM] | Emax [2] [%] | RSAT Eff(%)
18 | CC(CN1C2CCC1CC(Oc1ccc(F)cc1)C2)Cn1cc(C(=O)C(F)(F)F)c2cccnc21 (centres unmarked) |  |  |  | 35 | 
19 | COc1cccc2c(C#N)cn(CCCN3CCCC(Oc4ccc(Cl)cc4)C3)c12 (centres unmarked) |  |  |  | 48 | 
20 | COc1cccc2c(C(=O)C3CC3)cn(CCCN3CCCC(Oc4ccc(Cl)cc4)C3)c12 (centres unmarked) | 126 | 37 |  |  | 
21 | O=C(c1cn(CCCN2CCN(c3ncc(C(F)(F)F)cc3Cl)CC2)c2ncccc12)C(F)(F)F |  |  |  | 27 | 
22 | COc1cccc2c(C(=O)NCc3cccc(Cl)c3)cn(CCCN3CCC4(CC3)CC(=O)c3ccccc3O4)c12 | 63.1 | 7.8 |  |  | 
23 | COc1cccc2c(C(=O)C3CC3)cn(CCCN3CCC(c4nc(-c5cccnc5)no4)CC3)c12 | 39.8 | 96 |  |  | 
24 | CC(=O)c1cn(CCCN2CCN(C(C)c3ccccc3)CC2)c2ccc(Br)cc12 (centres unmarked) |  |  | 1260 | 72 | 
25 | CCCCC1CCN(CCCn2cc(C(=O)CC(C)C)c3ccccc32)CC1 |  |  | 398 | 85 | 
26 | COc1ccc2c(C(C)=O)cn(CCCN3CCC(Oc4ccc(Cl)cc4)CC3)c2c1 |  |  | 398 | 67 | 
27 | COc1cccc2c(C(=O)c3ccccc3)cn(CCCN3CCC4(CC3)CC(=O)c3ccccc3O4)c12 | 200 | 60 |  |  | 
28 | CC(=O)c1cn(CCCN2C3CCC2CC(Oc2ccc(F)cc2)C3)c2c(Br)cccc12 (centres unmarked) |  |  | 15.8 | 81 | 
29 | CC(=O)c1cn(CCCN2C3CCC2CC(Oc2ccc(F)cc2)C3)c2c(C)cccc12 (centres unmarked) |  |  | 20 | 98 | 
30 | CCCCC(=O)c1cn(CCCN2CCC(C(=O)c3ccccc3)CC2)c2ccc(OC)cc12 |  | 98 | 794 |  | 
31 | CCc1cccc2c(C(C)=O)cn(CCCN3C4CCC3CC(Oc3ccc(F)cc3)C4)c12 (centres unmarked) |  |  | 200 | 98 | 
32 | CC(=O)c1cn(CC(O)CN2CCC(c3nc4ccccc4s3)CC2)c2ccccc12 (centres unmarked) |  |  | 200 | 58 | 
33 | CC(=O)c1c(C)n(CCCN2CCC(N3C(=O)Cc4ccccc43)CC2)c2c(Br)cccc12 |  |  |  |  | 12
